Laboratory results reported in patent US8044079B2, “Substituted oxindole derivatives, medicaments containing said derivatives and use thereof” (Abbott GmbH & Co. KG, priority 2005, dated 2011).

What follows are compounds tested against T1, human vasopressin V1b receptor (Homo sapiens, UniProt P47901) (assay: Vasopressin V1b receptor binding test). Conditions: membranes of CHO-K1 cells with human V1b receptor, displacement of 1.5 nM 3H-AVP; for compounds with more than one stereogenic center the diastereomer with greater affinity.
T1 construct: expressed in transfected cells; host or cells: CHO-K1 (cell line hV1b_3H2_CHO), membrane preparation
T1 sequence (P47901 1-424): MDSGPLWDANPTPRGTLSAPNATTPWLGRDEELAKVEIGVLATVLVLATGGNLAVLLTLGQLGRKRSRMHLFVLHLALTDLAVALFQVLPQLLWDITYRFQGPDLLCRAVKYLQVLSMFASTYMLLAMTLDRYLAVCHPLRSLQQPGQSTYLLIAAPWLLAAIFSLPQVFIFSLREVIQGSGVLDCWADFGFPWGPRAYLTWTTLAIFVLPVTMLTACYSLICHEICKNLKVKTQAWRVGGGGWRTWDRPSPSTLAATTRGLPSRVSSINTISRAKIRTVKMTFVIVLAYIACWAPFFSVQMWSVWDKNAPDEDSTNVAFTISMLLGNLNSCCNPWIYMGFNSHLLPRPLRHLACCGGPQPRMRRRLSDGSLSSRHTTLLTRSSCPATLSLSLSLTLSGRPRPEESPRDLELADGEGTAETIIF
Experimental: Vasopressin V1b Receptor Binding Test:
The test substances were dissolved at a concentration of 10^−2 M in DMSO, and were further diluted to 5×10^−4 M to 5×10^−9 M in DMSO. This DMSO predilution series was diluted 1:10 with test buffer. In the test assay the substance concentration was further diluted to 1:5 (2% DMSO in the assay).
The membrane pellet was homogenized again as described and centrifuged, and was then taken up in 50 mM tris-HCl at pH 7.4, homogenized, and frozen in aliquots at −190° C. and stored in liquid nitrogen.
The incubation buffer was 50 mM tris, 10 mM MgCl2, and 0.1% BSA at pH 7.4. […] The nonspecific binding was determined using 1 μM AVP (Bachem #H1780). All determinations were performed in triplicate. After incubation (60 minutes at room temperature), the free radioligand was filtered off by vacuum filtration (Skatron 7000 cell harvester) through Wathman GF/B fiberglass filter mats, and the filters were transferred to scintillation vessels. The liquid scintillation measurement was conducted in a Model 2000 or 2200CA TriCarb unit (Packard). The measured cpm was converted to dpm using a standard quench series.
The binding parameters were calculated by nonlinear regression in SAS.
The affinities of the compounds according to the invention for human vasopressin receptor V1b were measured according to the above test, and the affinity constants (Ki) were determined.

Compound	Ki [nM]
COCCN(C)Cc1ccc(C2(N3CCC[C@H]3c3ncco3)C(=O)N(S(=O)(=O)c3ccc(OC)cc3)c3ccc(Cl)cc32)c(OC)c1 (stereo partly drawn) [Example 22, 5-Chloro-1-(4-methoxybenzenesulfonyl)-3-(2-methoxy-4-{[(2-methoxyethyl)methylamino]methyl}phenyl)-3-((S)-2-oxazol-2-yl-pyrrolidin-1-yl)-1,3-dihydroindol-2-one]	10 to 100
COc1ccc(S(=O)(=O)N2C(=O)C(c3ccc(CN4CCN(C)CC4)cc3OC)(N3CCC[C@H]3c3ncco3)c3cc(Cl)ccc32)cc1 (stereo partly drawn) [Example 23, 5-Chloro-1-(4-methoxybenzenesulfonyl)-3-[2-methoxy-4-(4-methylpiperazin-1-ylmethyl)phenyl]-3-((S)-2-oxazol-2-yl-pyrrolidin-1-yl)-1,3-dihydroindol-2-one]	< 10
COc1ccc(S(=O)(=O)N2C(=O)C(c3ccc(CN4CCNCC4)cc3OC)(N3CCC[C@H]3c3ncco3)c3cc(Cl)ccc32)cc1 (stereo partly drawn) [Example 24, 5-Chloro-1-(4-methoxybenzenesulfonyl)-3-(2-methoxy-4-piperazin-1-ylmethylphenyl)-3-((S)-2-oxazol-2-yl-pyrrolidin-1-yl)-1,3-dihydroindol-2-one]	< 10
COc1ccc(S(=O)(=O)N2C(=O)C(c3ccc(CN4CCCC4)cc3OC)(N3CCC[C@H]3c3ncco3)c3cc(Cl)ccc32)cc1 (stereo partly drawn) [Example 25, 5-Chloro-1-(4-methoxybenzenesulfonyl)-3-(2-methoxy-4-pyrrolidin-1-ylmethylphenyl)-3-((S)-2-oxazol-2-yl-pyrrolidin-1-yl)-1,3-dihydroindol-2-one]	< 10
COc1ccc(S(=O)(=O)N2C(=O)C(c3ccc(CN4CCCCC4)cc3OC)(N3CCC[C@H]3c3ncco3)c3cc(Cl)ccc32)cc1 (stereo partly drawn) [Example 26, 5-Chloro-1-(4-methoxybenzenesulfonyl)-3-(2-methoxy-4-piperidin-1-ylmethylphenyl)-3-((S)-2-oxazol-2-yl-pyrrolidin-1-yl)-1,3-dihydroindol-2-one]	< 10
COc1ccc(S(=O)(=O)N2C(=O)C(c3cc(CN(C)C)ccc3OC)(N3CCC[C@H]3c3ncco3)c3ccc(Cl)cc32)cc1 (stereo partly drawn) [Example 28, 6-Chloro-3-(5-dimethylaminomethyl-2-methoxyphenyl)-1-(4-methoxybenzenesulfonyl)-3-((S)-2-oxazol-2-yl-pyrrolidin-1-yl)-1,3-dihydroindol-2-one]	100 to 1000
CCN(C)Cc1ccc(OC)c(C2(N3CCC[C@H]3c3ncco3)C(=O)N(S(=O)(=O)c3ccc(OC)cc3)c3cc(Cl)ccc32)c1 (stereo partly drawn) [Example 30, 6-Chloro-3-{5-[(ethylmethylamino)methyl]-2-methoxyphenyl}-1-(4-methoxybenzenesulfonyl)-3-((S)-2-oxazol-2-yl-pyrrolidin-1-yl)-1,3-dihydroindol-2-one]	100 to 1000
CCN(CC)Cc1ccc(OC)c(C2(N3CCC[C@H]3c3ncco3)C(=O)N(S(=O)(=O)c3ccc(OC)cc3)c3cc(Cl)ccc32)c1 (stereo partly drawn) [Example 31, 6-Chloro-3-(5-diethylaminomethyl-2-methoxyphenyl)-1-(4-methoxybenzenesulfonyl)-3-((S)-2-oxazol-2-yl-pyrrolidin-1-yl)-1,3-dihydroindol-2-one]	100 to 1000
CCCNCc1ccc(OC)c(C2(N3CCC[C@H]3c3ncco3)C(=O)N(S(=O)(=O)c3ccc(OC)cc3)c3cc(Cl)ccc32)c1 (stereo partly drawn) [Example 32, 6-Chloro-1-(4-methoxybenzenesulfonyl)-3-(2-methoxy-5-propylaminomethylphenyl)-3-((S)-2-oxazol-2-yl-pyrrolidin-1-yl)-1,3-dihydroindol-2-one]	100 to 1000
COc1ccc(S(=O)(=O)N2C(=O)C(c3cc(CN(C)C(C)C)ccc3OC)(N3CCC[C@H]3c3ncco3)c3ccc(Cl)cc32)cc1 (stereo partly drawn) [Example 33, 6-Chloro-3-{5-[(isopropylmethylamino)methyl]-2-methoxyphenyl}-1-(4-methoxybenzenesulfonyl)-3-((S)-2-oxazol-2-yl-pyrrolidin-1-yl)-1,3-dihydroindol-2-one]	100 to 1000
COCCN(C)Cc1ccc(OC)c(C2(N3CCC[C@H]3c3ncco3)C(=O)N(S(=O)(=O)c3ccc(OC)cc3)c3cc(Cl)ccc32)c1 (stereo partly drawn) [Example 34, 6-Chloro-1-(4-methoxybenzenesulfonyl)-3-(2-methoxy-5-{[(2-methoxyethyl)methylamino]methyl}phenyl)-3-((S)-2-oxazol-2-yl-pyrrolidin-1-yl)-1,3-dihydroindol-2-one]	100 to 1000
COc1ccc(S(=O)(=O)N2C(=O)C(c3cc(CN4CCN(C)CC4)ccc3OC)(N3CCC[C@H]3c3ncco3)c3ccc(Cl)cc32)cc1 (stereo partly drawn) [Example 35, 6-Chloro-1-(4-methoxybenzenesulfonyl)-3-[2-methoxy-5-(4-methylpiperazin-1-ylmethyl)phenyl]-3-((S)-2-oxazol-2-yl-pyrrolidin-1-yl)-1,3-dihydroindol-2-one]	100 to 1000
COc1ccc(S(=O)(=O)N2C(=O)C(c3cc(CN4CCOCC4)ccc3OC)(N3CCC[C@H]3c3ncco3)c3ccc(Cl)cc32)cc1 (stereo partly drawn) [Example 37, 6-Chloro-1-(4-methoxybenzenesulfonyl)-3-(2-methoxy-5-morpholin-4-ylmethylphenyl)-3-((S)-2-oxazol-2-yl-pyrrolidin-1-yl)-1,3-dihydroindol-2-one]	100 to 1000
COc1ccc(S(=O)(=O)N2C(=O)C(c3cc(CN4CCC4)ccc3OC)(N3CCC[C@H]3c3ncco3)c3ccc(Cl)cc32)cc1 (stereo partly drawn) [Example 38, 3-(5-Azetidin-1-ylmethyl-2-methoxyphenyl)-6-chloro-1-(4-methoxybenzenesulfonyl)-3-((S)-2-oxazol-2-yl-pyrrolidin-1-yl)-1,3-dihydroindol-2-one]	100 to 1000
COc1ccc(S(=O)(=O)N2C(=O)C(c3cc(CN4CCCC4)ccc3OC)(N3CCC[C@H]3c3ncco3)c3ccc(Cl)cc32)cc1 (stereo partly drawn) [Example 39, 6-Chloro-1-(4-methoxybenzenesulfonyl)-3-(2-methoxy-5-pyrrolidin-1-ylmethylphenyl)-3-((S)-2-oxazol-2-yl-pyrrolidin-1-yl)-1,3-dihydroindol-2-one]	100 to 1000
COc1ccc(S(=O)(=O)N2C(=O)C(c3cc(CN4CCCCC4)ccc3OC)(N3CCC[C@H]3c3ncco3)c3ccc(Cl)cc32)cc1 (stereo partly drawn) [Example 40, 6-Chloro-1-(4-methoxybenzenesulfonyl)-3-(2-methoxy-5-piperidin-1-ylmethylphenyl)-3-((S)-2-oxazol-2-yl-pyrrolidin-1-yl)-1,3-dihydroindol-2-one]	100 to 1000
COc1ccc(S(=O)(=O)N2C(=O)C(c3ccc(CN(C)C)cc3OC)(N3CCC[C@H]3c3ncco3)c3cc(C#N)ccc32)cc1 (stereo partly drawn) [Example 41, 5-Cyano-3-(4-dimethylaminomethyl-2-methoxyphenyl)-1-(4-methoxybenzenesulfonyl)-3-((S)-2-oxazol-2-yl-pyrrolidin-1-yl)-1,3-dihydroindol-2-one]	10 to 100
COc1ccc(S(=O)(=O)N2C(=O)C(c3ccc(CN4CCN(C)CC4)cc3OC)(N3CCC[C@H]3c3ncco3)c3cc(C#N)ccc32)cc1 (stereo partly drawn) [Example 42, 5-Cyano-1-(4-methoxybenzenesulfonyl)-3-[2-methoxy-4-(4-methylpiperazin-1-ylmethyl)phenyl]-3-((S)-2-oxazol-2-yl-pyrrolidin-1-yl)-1,3-dihydroindol-2-one]	10 to 100
COc1ccc(S(=O)(=O)N2C(=O)C(c3ccc(CN4CCOCC4)cc3OC)(N3CCC[C@H]3c3ncco3)c3cc(C#N)ccc32)cc1 (stereo partly drawn) [Example 43, 5-Cyano-1-(4-methoxybenzenesulfonyl)-3-(2-methoxy-4-morpholin-4-ylmethylphenyl)-3-((S)-2-oxazol-2-yl-pyrrolidin-1-yl)-1,3-dihydroindol-2-one]	100 to 1000
CNCc1ccc(OC)c(C2(N3CCC[C@H]3c3ncco3)C(=O)N(S(=O)(=O)c3ccc(OC)cc3)c3ccc(C#N)cc32)c1 (stereo partly drawn) [Example 45, 5-Cyano-1-(4-methoxybenzenesulfonyl)-3-(2-methoxy-5-methylaminomethylphenyl)-3-((S)-2-oxazol-2-yl-pyrrolidin-1-yl)-1,3-dihydroindol-2-one]	< 10
COc1ccc(S(=O)(=O)N2C(=O)C(c3cc(CN(C)C)ccc3OC)(N3CCC[C@H]3c3ncco3)c3cc(C#N)ccc32)cc1 (stereo partly drawn) [Example 46, 5-Cyano-3-(5-dimethylaminomethyl-2-methoxyphenyl)-1-(4-methoxybenzenesulfonyl)-3-((S)-2-oxazol-2-yl-pyrrolidin-1-yl)-1,3-dihydroindol-2-one]	10 to 100
CCNCc1ccc(OC)c(C2(N3CCC[C@H]3c3ncco3)C(=O)N(S(=O)(=O)c3ccc(OC)cc3)c3ccc(C#N)cc32)c1 (stereo partly drawn) [Example 47, 5-Cyano-3-(5-ethylaminomethyl-2-methoxyphenyl)-1-(4-methoxybenzenesulfonyl)-3-((S)-2-oxazol-2-yl-pyrrolidin-1-yl)-1,3-dihydroindol-2-one]	< 10
